The text below walks through data of US9546153B2, “Bicyclic heterocycle substituted pyridyl compounds useful as kinase modulators” (BRISTOL-MYERS SQUIBB COMPANY, priority 2012, dated 2017).

Like-named read-outs stand apart in the source and are kept apart here.

The target of assay [1] is IRAK4 (Homo sapiens (Human), UniProt Q9NWZ3). In words: IRAK4 Inhibition Assay. The assay is classed as biochemical. The following applies: ATP 500 μM; IRAK4 0.6 nM; 60 min at room temperature. The protocol:
The assays were performed in U-bottom 384-well plates. […] The reaction was initiated by the combination of IRAK4 with substrates and test compounds. The reaction was incubated at room temperature for 60 min. and terminated by adding 45 μL of 35 mM EDTA to each sample. The reaction mixture was analyzed on the Caliper LABCHIP® 3000 (Caliper, Hopkinton, Mass.) by electrophoretic separation of the fluorescent substrate and phosphorylated product.

Assay [2] has as its system TLR2 induced IL-6 in peripheral blood mononuclear cells (PBMCs). In words: PBMC TLR2 Induced IL-6 Assay. The assay is classed as cell-based, human. The settings on record: human PBMCs, 10 μg/ml lipoteichoic acid for 5 hours, IL-6 by ELISA, value without asterisk, read-out: Cell IC50. In short, it runs like this:
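IL-6 ELISA of supernatants after a 5 h challenge with the TLR2 agonist lipoteichoic acid (10 μg/ml). Before stimulation, human PBMCs (250000 cells/well; RPMI, 10% heat-inactivated FCS) received compound for 30 min at 37° C. Values given as IC50 or EC50.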

IRAK4, sequence (Q9NWZ3 whole entry, species assumed): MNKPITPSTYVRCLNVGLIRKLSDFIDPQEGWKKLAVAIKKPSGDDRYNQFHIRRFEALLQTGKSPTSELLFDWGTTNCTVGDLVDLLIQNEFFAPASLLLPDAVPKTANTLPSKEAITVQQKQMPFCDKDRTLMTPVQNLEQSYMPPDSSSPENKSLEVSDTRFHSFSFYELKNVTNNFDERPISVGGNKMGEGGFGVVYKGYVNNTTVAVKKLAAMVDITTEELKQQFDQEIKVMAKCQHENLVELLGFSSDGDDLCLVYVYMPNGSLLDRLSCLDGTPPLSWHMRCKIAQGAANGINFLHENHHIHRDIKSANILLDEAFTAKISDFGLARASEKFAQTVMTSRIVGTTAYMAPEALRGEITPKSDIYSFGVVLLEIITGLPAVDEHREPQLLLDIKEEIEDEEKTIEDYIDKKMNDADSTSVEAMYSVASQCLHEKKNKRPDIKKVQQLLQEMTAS

For `CC(=O)NCCCNC(=O)c1cnc(Nc2ccc3ncsc3c2)cc1NC(C)C` [Example 199], the concentration for half-maximal inhibition (IC50) in assay [1] was found to be 8.4 nM; in assay [2] (Homo sapiens, PBMC, 5 h), 551 nM.
The like results for `CC(=O)N[C@H]1CC[C@H](NC(=O)c2cnc(Nc3ccc4ncsc4c3)cc2NC(C)C)CC1` [Example 200] were, in that order, 2.2 nM and 94 nM.
For the molecule `CC(C)Nc1cc(Nc2ccc3ncsc3c2)ncc1C(=O)N[C@H]1CC[C@H](NC(=O)c2ccccn2)CC1` [Example 201], the IC50 worked out at 4.5 nM in assay [1] and 499 nM in assay [2] (Homo sapiens, PBMC, 5 h).
In the same order, the values of `CC(C)Nc1cc(Nc2ccc3ncsc3c2)ncc1C(=O)N[C@H]1CC[C@H](NC(=O)c2cccnc2)CC1` [Example 202] are 2.4 nM and 156 nM.
In the same order, the values of `CC(C)Nc1cc(Nc2ccc3ncsc3c2)ncc1C(=O)N[C@H]1CC[C@H](N)CC1` [Example 203] are 3.4 nM and 307 nM.
On to `CC(C)Nc1cc(Nc2ccc3ncsc3c2)ncc1C(=O)N[C@H]1CC[C@H](NS(C)(=O)=O)CC1` [Example 204], for which the IC50 in assay [1] was found to be 2.6 nM; in assay [2] (Homo sapiens, PBMC, 5 h) it was 252 nM.
In the same order, the values of `CC(C)Nc1cc(Nc2ccc3ncsc3c2)ncc1C(=O)N[C@H]1CC[C@H](NC(=O)N2CCOCC2)CC1` [Example 205] are 1.8 nM and 169 nM.
Regarding `CC(C)NC(=O)N[C@H]1CC[C@H](NC(=O)c2cnc(Nc3ccc4ncsc4c3)cc2NC(C)C)CC1` [Example 206], the IC50 in assay [1] is 2.1 nM; in assay [2] (Homo sapiens, PBMC, 5 h), 139 nM.
The like results for `CC(C)Nc1cc(Nc2ccc3ncsc3c2)ncc1C(=O)N[C@H]1CC[C@H](NC(=O)c2ccncc2)CC1` [Example 207] were, in that order, 1.7 nM and 158 nM.
In the same order, the values of `CC(C)Nc1cc(Nc2ccc3ncsc3c2)ncc1C(=O)NCC[C@@H](C)NC(=O)N(C)c1ccccc1` [Example 208] are 3.7 nM and 647 nM.
In the same order, the values of `CC(=O)NCCCCNC(=O)c1cnc(Nc2ccc3ncsc3c2)cc1NC(C)C` [Example 209] are 5.3 nM and 875 nM.
For `CC(C)Nc1cc(Nc2ccc3ncsc3c2)ncc1C(=O)NCC[C@@H](C)NC(=O)N1CCCC1` [Example 212], the concentration for half-maximal inhibition (IC50) came to 6.9 nM in assay [1] and 712 nM in assay [2] (Homo sapiens, PBMC, 5 h).
As for `CC(C)Nc1cc(Nc2ccc3ncsc3c2)ncc1C(=O)N[C@H]1CC[C@H](C(=O)NC2(C#N)CC2)CC1` [Example 213], the half-inhibitory concentration (IC50) in assay [1] is 3.1 nM; in assay [2] (Homo sapiens, PBMC, 5 h), 403 nM.
The like results for `CC(C)Nc1cc(Nc2ccc3ncsc3c2)ncc1C(=O)N[C@H]1CC[C@H](C(=O)NC23CC4CC(CC(O)(C4)C2)C3)CC1` [Example 214] were, in that order, 6.7 nM and 371 nM.
As for `CC(=O)N[C@H]1CC[C@@H](NC(=O)c2cnc(Nc3ccc4ncsc4c3)cc2NC(C)C)CC1` [Example 216], the IC50 worked out at 3.5 nM in assay [1] and 604 nM in assay [2] (Homo sapiens, PBMC, 5 h).
In the same order, the values of `CC(C)Nc1cc(Nc2ccc3ncsc3c2)ncc1C(=O)NC1CCN(S(C)(=O)=O)CC1` [Example 217] are 5 nM and 560 nM.
The like results for `CC(C)Nc1cc(Nc2ccc3ncsc3c2)ncc1C(=O)NC1CCN(C(=O)N2CCOCC2)CC1` [Example 218] were, in that order, 7 nM and 471 nM.
In the same order, the values of `CC(C)Nc1cc(Nc2ccc3ncsc3c2)ncc1C(=O)NC1CCN(C(=O)c2cccnc2)CC1` [Example 219] are 4.8 nM and 447 nM.
Consider `CC(C)Nc1cc(Nc2ccc3ncsc3c2)ncc1C(=O)N[C@H]1CC[C@H](C(=O)NC23CCC(O)(CC2)C3)CC1` [Example 220], for which the IC50 in assay [1] was 3.4 nM; in assay [2] (Homo sapiens, PBMC, 5 h) it was 328 nM.
Consider `CNC(=O)[C@H]1CC[C@H](NC(=O)c2cnc(Nc3ccc4ncsc4c3)cc2NC(C)C)C1` [Example 221], for which the IC50 in assay [1] was 10.5 nM; in assay [2] (Homo sapiens, PBMC, 5 h) it was 462 nM.
The like results for `CC(C)Nc1cc(Nc2ccc3ncsc3c2)ncc1C(=O)N[C@H]1CC[C@H](C(=O)NC2(C#N)CC2)C1` [Example 222] were, in that order, 9.9 nM and 692 nM.
Regarding `CC(C)Nc1cc(Nc2ccc3ncsc3c2)ncc1C(=O)NC12CCC(N)(CC1)CC2` [Example 223], the IC50 in assay [1] came out at 4.2 nM; in assay [2] (Homo sapiens, PBMC, 5 h) it was 238 nM.
The like results for `CC(C)Nc1cc(Nc2ccc3ncsc3c2)ncc1C(=O)NC12CCC(N)(CC1)C2` [Example 224] were, in that order, 9.6 nM and 280 nM.
The like results for `CCNC(=O)[C@H]1CC[C@H](NC(=O)c2cnc(Nc3ccc4ncsc4c3)cc2NC(C)C)CC1` [Example 225] were, in that order, 3.3 nM and 535 nM.
The like results for `CC(C)Nc1cc(Nc2ccc3ncsc3c2)ncc1C(=O)NC12CCC(C(=O)NCC(C)(C)O)(CC1)CC2` [Example 226] were, in that order, 3.4 nM and 274 nM.
For `CC(C)Nc1cc(Nc2ccc3ncsc3c2)ncc1C(=O)N[C@H]1CC[C@H](C(=O)NC2CC2)CC1` [Example 227], the IC50 worked out at 2.7 nM in assay [1] and 138 nM in assay [2] (Homo sapiens, PBMC, 5 h).
In the same order, the values of `CC(C)Nc1cc(Nc2ccc3ncsc3c2)ncc1C(=O)N[C@H]1CC[C@H](C(N)=O)CC1` [Example 228] are 2.4 nM and 392 nM.
In the same order, the values of `CNC(=O)C12CCC(NC(=O)c3cnc(Nc4ccc5ncsc5c4)cc3NC(C)C)(CC1)CC2` [Example 229] are 3.4 nM and 488 nM.
Turning to `CC(C)(O)[C@H](F)CNC(=O)c1cnc(Nc2ccc3ncsc3c2)cc1NC1CCOCC1F` (stereo partly drawn) [Example 230], the half-inhibitory concentration (IC50) in assay [1] was 5.1 nM; in assay [2], 274 nM.
The like results for `CC(C)(O)[C@H](F)CNC(=O)c1cnc(Nc2ccc3ncsc3c2)cc1NC1CCOCC1F` (stereo partly drawn) [Example 231] were, in that order, 3.4 nM and 88 nM.
In the same order, the values of `CC1COCCC1Nc1cc(Nc2ccc3ncsc3c2)ncc1C(=O)NC[C@@H](F)C(C)(C)O` (stereo partly drawn) [Example 232] are 35.7 nM and 697 nM.
In the same order, the values of `CC1COCCC1Nc1cc(Nc2ccc3ncsc3c2)ncc1C(=O)NC[C@@H](F)C(C)(C)O` (stereo partly drawn) [Example 233] are 7.4 nM and 469 nM.
As for `CC(C)(O)[C@H](F)CNC(=O)c1cnc(Nc2ccc3ncsc3c2)cc1NC1COCCC1F` (stereo partly drawn) [Example 235], the IC50 came to 1.7 nM in assay [1] and 263 nM in assay [2] (Homo sapiens, PBMC, 5 h).
The like results for `CC(C)(O)[C@H](F)CNC(=O)c1cnc(Nc2ccn3nccc3n2)cc1NC1CC1` [Example 236] were, in that order, 4.7 nM and 346 nM.
In the same order, the values of `CC(C)(O)[C@H](F)CNC(=O)c1cnc(Nc2ccn3nccc3n2)cc1NC1CCOCC1` [Example 237] are 3.1 nM and 222 nM.
Consider `CC(C)Nc1cc(Nc2ccn3ncc(Cl)c3n2)ncc1C(=O)NC[C@@H](F)C(C)(C)O` [Example 243], for which the half-inhibitory concentration (IC50) turned out to be 5.5 nM in assay [1] and 567 nM in assay [2].
In the case of `CC(C)Nc1cc(Nc2ccn3ncc(F)c3n2)ncc1C(=O)NC[C@@H](F)C(C)(C)O` [Example 244], the IC50 in assay [1] was found to be 1.9 nM; in assay [2] (Homo sapiens, PBMC, 5 h) it was 156 nM.
The like results for `CC(C)(O)[C@H](F)CNC(=O)c1cnc(Nc2ccn3nccc3n2)cc1NC1CCCC1F` (stereo partly drawn) [Example 245] were, in that order, 2.8 nM and 390 nM.
As for `CC(C)(O)[C@H](F)CNC(=O)c1cnc(Nc2ccn3nccc3n2)cc1NC1CCCC1F` (stereo partly drawn) [Example 246], the IC50 is 5.5 nM in assay [1] and 262 nM in assay [2].
